The source of these data is paper PMC6614837 (Nucleic Acids Research, 2019).

Assay [1] relates to P RNA. Nature of the assay: Gel-based activity assay, bipartite pre-tRNA substrate, P RNA alone. Format: biochemical, T. maritima. The settings on record: 100 mM AmOAc, 10 mM MgCl2. The procedure: (§1) For gel-based activity assays, reactions were prepared as described in the previous section (fluorescence activity assay), incubated for 1–15 min at 37–50°C, then loaded onto a denaturing 7 M urea–20% acrylamide gel in the case of the Mh substrate or 19% acrylamide (40% acrylamide/bisacrylamide 38.5:1.5) for the bipartite pre-tRNA substrate. The activity conditions for the gel reported in Figure 3A, to monitor the cleavage of the holoenzyme and P RNA, were under 100 mM AmOAc and 10 mM MgCl2. The gels (13 × 16 × 0.15 cm) were electrophoresed at 20 V/cm for 2–3 h. UV shadowing or ethidium bromide staining was used to visualize RNA cleavage. Detection of minihelix fluorescence was achieved without staining using a UV lamp with excitation at ∼254 nm.
Figure 3. The inhibitors purpurin and hematein bind to the holoenzyme. (A) Top. […] Bottom. […] (B) The relative affinities of the inhibitors for the P RNA or the holoenzyme differ. Binding sensorgrams obtained by biolayer interferometry (BLI). P RNA or RNase P holoenzyme was immobilized on super streptavidin (SSA) biosensors through a 5′-biotinylated RNA oligonucleotide complementary to a region on the P1 stem of P RNA (see Materials and Methods). […] In contrast, gentian violet binds not only to P RNA but also to the Mh substrate (Supplementary Figure S16). (C) Molecular Dynamics (MD) simulations of RNase P protein in complex with the validated inhibitors. In each panel, semitransparent spheres represent the geometric center, over a 200 ns trajectory, of the corresponding tested compound. The 5′-leader (yellow) is shown for reference purposes only; it was not included in the simulation. Sphere color coding indicates the starting and final positions in blue and red, respectively. […] Purpurin's starting conformation corresponds to that observed in the crystal structure in complex with the P protein (PDB code: 6MAX. See Figure 5).

The subject of assay [2] is P RNA. Put plainly: Biolayer interferometry binding to immobilized P RNA. More on the design: species or system T. maritima. The settings on record: BLI, P RNA on SSA biosensors via biotinylated oligonucleotide. The procedure: Real-time binding assays of the holoenzyme, P RNA, P protein, the substrate minihelix and the 5′-leader to individual compounds were performed by biolayer interferometry using an Octet RED96 system (ForteBio). For the holoenzyme or P RNA, a 5′ biotinylated RNA oligonucleotide with the sequence 5′biotin-CAUUCCAGACGAU was immobilized on Super Streptavidin (SSA) biosensors. Then, a modified P RNA or holoenzyme was added. The P RNA modification consisted of a sequence with part of the P1 stem sequence complementary to the biotinylated oligonucleotide (AUCGUCUGGA) (Supplementary Figure S23A). P1 is far from the active site or other regions involved in specific interactions (Supplementary Figure S23B) ([19]). The activity of this construct was indistinguishable from the wild-type holoenzyme. Alternatively, the holoenzyme was immobilized through the His-tagged P protein from T. maritima at 0.05 mg/ml (3.4 μM) on Ni-NTA biosensors. Control biosensors were used to subtract non-specific binding of compounds to the biosensor surface. All assay steps (immobilization, wash, baseline, association, and dissociation) were performed in 20 mM HEPES pH 7.4, 100 mM ammonium acetate, 10 mM MgCl2, 2.5% DMSO. The assays were performed on black bottom 96-well microplates (Greiner Bio-One 655209) in a total volume of 200 μl, at 30°C with orbital shaking at 1000 rpm. Experiments were controlled with the software Data Acquisition 8.2 (ForteBio, Inc.). Kinetic binding parameters were calculated using Data Analysis 8.2 (ForteBio, Inc.). After subtraction of reference biosensors, the binding curves were aligned to the X- and Y-axis and the association-dissociation inter-step curve in order to get a common baseline for the association and dissociation phases.
Figure 3. The inhibitors purpurin and hematein bind to the holoenzyme. (A) Top. […] Bottom. […] (B) The relative affinities of the inhibitors for the P RNA or the holoenzyme differ. Binding sensorgrams obtained by biolayer interferometry (BLI). […]
(In general: In BLI a coated tip is dipped into the sample, and binding shifts an interference pattern.)

For another assay, the target named is T1, RNase P holoenzyme (Thermotoga maritima, UniProt Q9X1H4).
T1 construct: GST (cleaved yes); made in house; host or cells: E. coli BL21(DE3)pLysS
T1 sequence (Q9X1H4 1-117): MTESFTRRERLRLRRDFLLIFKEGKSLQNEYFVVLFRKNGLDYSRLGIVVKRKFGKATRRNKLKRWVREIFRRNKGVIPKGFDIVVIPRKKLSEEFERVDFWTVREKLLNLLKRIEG
Nature of the assay: Gel-based activity assay, bipartite pre-tRNA substrate, holoenzyme. Format: biochemical, T. maritima. The settings on record: 100 mM AmOAc, 10 mM MgCl2. The procedure:
as §1
Figure 3. The inhibitors purpurin and hematein bind to the holoenzyme. (A) Top. […] Bottom. […] (B) The relative affinities of the inhibitors for the P RNA or the holoenzyme differ. Binding sensorgrams obtained by biolayer interferometry (BLI). P RNA or RNase P holoenzyme was immobilized on super streptavidin (SSA) biosensors through a 5′-biotinylated RNA oligonucleotide complementary to a region on the P1 stem of P RNA (see Materials and Methods). […] In contrast, gentian violet binds not only to P RNA but also to the Mh substrate (Supplementary Figure S16). […]

Assay [3] has as its target T2, RNase P holoenzyme from T. maritima (Thermotoga maritima, UniProt Q9X1H4).
T2 construct: made in house
T2 sequence (Q9X1H4 1-117): T1 sequence (Q9X1H4 1-117)
Nature of the assay: End-point urea-PAGE RNase P activity assay with canonical pre-tRNA substrate. The following applies: 10% DMSO. It counts as biochemical. As for the experimental part: Supplementary Figure 11 . End-point urea-PAGE RNase P activity assays using a canonical pre-tRNA substrate are in agreement with the fluorescence inhibition experiments. RNase P holoenzyme from T. maritima is inhibited by the four validated hits, as observed in an 18% urea- PAGE end-point assay. RNase P holoenzyme was incubated in the presence of 10% DMSO (+) or different concentrations of compound for 30 min at 37°C. See also Supplementary Figure […]
Supplementary Figure 12. End-point urea-PAGE RNase P activity assays using a canonical pre-tRNA substrate are in agreement with the fluorescence inhibition experiments using the minihelix substrate. Compound-dependent disappearance of the pre-tRNA substrate, with a […]
biological substrate for the inhibitors (juglone and purpurin). The assays were performed under the following conditions: 66 nM RNase P holoenzyme, in a total volume of 20 µL in activity buffer (33 mM Tris, 66 mM HEPES pH 7.4, 400 mM ammonium acetate, 100 mM MgCl2) were incubated in the presence of 10% DMSO (+) or different concentrations of compound for 30 min at 37° C. Then, pre-tRNA was added to a final concentration of 1.6 µM and the reaction was incubated at 55° C for 25 min before gel loading. […]

Turning to `O=C1C=C2CC3(O)COc4c(ccc(O)c4O)C3=C2C=C1O` (stereo not drawn) [Hematein, 3,4,6a,10-tetrahydroxy-6a,7-dihydroindeno[2,1-c]chromen-9(6H)-one], the “Inhibition of the P RNA reaction” value in the assay on P RNA [1] is “not the P RNA alone”. Further, the “Binding to P RNA” value with P RNA [2] is “binds only slightly to P RNA”. In addition, the “Inhibition of the holoenzyme reaction” value at RNase P holoenzyme was “inhibit the reaction catalyzed by the RNase P holoenzyme”.
Consider `O=C1c2ccccc2C(=O)c2c(O)c(O)cc(O)c21` [Purpurin, 1,2,4-trihydroxyanthraquinone], for which, in assay [3], the “Inhibition of pre-tRNA cleavage (urea-PAGE end-point)” value is given as “confirms the inhibition”. In the assay on P RNA [1], the “Inhibition of the P RNA reaction” value is “not the P RNA alone”. Besides, in the assay with P RNA [2], the “Binding to P RNA” value is on record as “does not bind to P RNA”. Moreover, the “Inhibition of the holoenzyme reaction” value at RNase P holoenzyme is recorded as “inhibit the reaction catalyzed by the RNase P holoenzyme”.
Regarding `O=C1C=CC(=O)c2c(O)cccc21` [Juglone, 5-hydroxy-1,4-naphthoquinone], the “Inhibition of pre-tRNA cleavage (urea-PAGE end-point)” value in assay [3] is “confirms the inhibition”. Moreover, the “Inhibition of the P RNA reaction” value in the assay with P RNA [1] is given as “less clear behavior”.
